Assay results reported in patent publication US6911477B2, “Muscarinic receptor agonists” (Pfizer Inc., priority 1996, dated 2005).
Structures can show the parent of a compound that is named as a salt.

Compound | melting point
Cc1cccc(C)c1C(=Nc1ccc(F)cc1)NC(=NC1CC1)N1CCCCC1C (stereo not shown) (as salt: hydrochloride) [Example 103, N-[cyclopropylimino-(2-methyl-piperidin-1-yl)-methyl]-N′-(4-fluoro-phenyl)-2,6-dimethyl-benzamidine] | 219 to 220 °C
Cc1cccc(C)c1C(=Nc1ccc(F)cc1)NC(=NC1CC1)N1CCCCO1 (as salt: hydrochloride) [Example 104, N-(cyclopropylimino-[1,2]oxazinan-2-yl-methyl)-N′-(4-fluoro-phenyl)-2,6-dimethyl-benzamidine] | 229 to 231 °C (dec.)
Cc1ccccc1C(=Nc1ccc(F)cc1)NC(=NC1CC1)C1(C)CCCCC1 (as salt: hydrochloride) [Example 106, N-[cyclopropylimino-(1-methyl-cyclohexyl)-methyl]-N′-(4-fluoro-phenyl)-2-methyl-benzamidine] | 205 to 207 °C
Cc1ccccc1C(=CC(=NC1CC1)N1CCCCO1)Nc1ccc(F)cc1 (as salt: hydrochloride) [Example 107, (3cyclopropylimino-3-[1,2]oxazinan-2-yl-1-o-tolyl-propenyl)-(4-fluoro-phenyl)-amine] | 140 to 142 °C (dec.)
c1ccc(N=C(N=C(Nc2ccccc2)c2ccccc2)N2CCSCC2)cc1 (as salt: hydroiodid) [Example 13, N-phenyl-N′-(phenylimino-thiomorpholin-4-yl-methyl)-benzamidine] | 216 to 218 °C (dec.)
Cc1ccccc1C(=NC(=Nc1ccncc1)N1CCCCC1C)Nc1ccc(F)cc1 (stereo not shown) (as salt: nitrate) [Example 40, N-(4-fluoro-phenyl)-2-methyl-N′-[(2-methyl-piperidin-1-yl)-(pyridin-4-ylimino)-methyl]-benzamidine] | 209 to 210 °C (dec.)
CC1CCCCN1C(N=C(Nc1ccc(F)cc1)c1c(F)cccc1F)=Nc1ccccc1 (stereo not shown) (as salt: nitrate) [Example 44, 2,6-difluoro-N-(4-fluoro-phenyl)-N′-[(2-methyl-piperidin-1-yl)-phenylimino-methyl]-benzamidine] | 163 to 165 °C (dec.)
CC1CCCCN1C(N=C(Nc1ccc(F)cc1)c1c(F)cccc1F)=Nc1ccc(F)cc1 (stereo not shown) (as salt: nitrate) [Example 51, 2,6-difluoro-N-(4-fluoro-phenyl)-N′-[(4-fluoro-phenylimino)-(2-methyl-piperidin-1-yl)-methyl]-benzamidine] | 171 to 173 °C
CC1CCCC(C)N1C(=Nc1ccc(F)cc1)NC(=Nc1ccc(F)cc1)c1c(F)cccc1F (stereo not shown) (as salt: nitrate) [Example 52, N-[(2,6-dimethyl-piperidin-1-yl)-(4-fluoro-phenylimino)-methyl]-2,6-difluoro-N′-(4-fluoro-phenyl)-benzamidine] | 172 to 174 °C
C(=C(Nc1ccccc1)c1ccccc1)C(=Nc1ccccc1)N1CCCC1 (as salt: nitrate) [Example 87, (3-phenylimino-3-pyrrolidin-1-yl-1-phenyl-propenyl)-phenylamine] | 184 to 186 °C
Cc1ccccc1C(=CC(=Nc1ccccc1)N1CCCCO1)Nc1ccc(F)cc1 (as salt: nitrate) [Example 91, (3-phenylimino-3-[1,2]oxazinan-2-yl-1-o-tolyl-propenyl)-(4-fluoro-phenyl)-amine] | 151 to 153 °C
Fc1ccc(NC(=CC(=NC2CC2)N2CCCCO2)c2ccccc2)cc1 (as salt: nitrate) [Example 110, (3-cyclopropylimino-3-[1,2]oxazinan-2-yl-1-phenyl-propenyl)-(4-fluoro-phenyl)-amine] | 82 to 84 °C
Cc1ccccc1C(=NC(=Nc1ccccc1)C1(C)CCCCC1)Nc1ccc(F)cc1 [Example 11, N-(4-Fluoro-phenyl)-2-methyl-N′-[(1-methyl-cyclohexyl)-phenylimino-methyl]-benzamidine] | 210 to 211 °C

Other lines, results leading:

melting point | Compound
219 to 221 °C (dec.) | CC1CCCCN1C(=Nc1ccccc1)NC(=Nc1ccccc1)c1ccccc1 (stereo not shown) (as salt: hydroiodid) [Example 3, N-[(2-Methyl-piperidin-1-yl)-phenylimino-methyl]-N′-phenyl-benzamidine]
198 to 200 °C (dec.) | c1ccc(N=C(N=C(Nc2ccccc2)c2ccccc2)N2CCCCC2)cc1 (as salt: hydroiodid) [Example 12, N-phenyl-N′-(phenylimino-piperidin-1-yl-methyl)-benzamidine]
228 to 229 °C | c1ccc(N=C(NC(=Nc2ccccc2)N2CCCCCC2)c2ccccc2)cc1 (as salt: hydroiodid) [Example 17, N-(azepan-1-yl-phenylimino-methyl)-N′-phenyl-benzamidine]
241 to 243 °C | COc1ccc(N=C(NC(=Nc2ccccc2)N2CCCCCC2)c2ccccc2)cc1 (as salt: hydroiodid) [Example 18, N-(azepan-1-yl-phenylimino-methyl)-N′-(4-methoxy-phenyl)-benzamidine]
> 228 °C (dec.) | Fc1ccc(N=C(NC(=Nc2ccccc2)N2CCCCCC2)c2ccccc2)cc1 (as salt: hydroiodid) [Example 19, N-(azepan-1-yl-phenylimino-methyl)-N′-(4-fluoro-phenyl)-benzamidine]
192 to 195 °C (dec.) | CC1CCN(C(=Nc2ccccc2)NC(=Nc2ccccc2)c2ccccc2)CC1 (as salt: hydroiodid) [Example 21, N-[(4-methyl-piperidin-1-yl)-phenylimino-methyl]-N′-phenyl-benzamidine]
252 to 253 °C (dec.) | c1ccc(N=C(NC(=Nc2ccccc2)N2CCCCCCC2)c2ccccc2)cc1 (as salt: hydroiodid) [Example 22, N-(azocan-1-yl-phenylimino-methyl)-N′-phenyl-benzamidine]
179 to 182 °C (dec.) | CC1CCCN(C(=Nc2ccccc2)NC(=Nc2ccccc2)c2ccccc2)C1 (stereo not shown) (as salt: hydroiodid) [Example 23, N-[(3-methyl-piperidin-1-yl)-phenylimino-methyl]-N′-phenyl-benzamidine]
255 to 257 °C | Cc1cccc(C)c1C(=Nc1ccccc1)NC(=Nc1ccccc1)N1CCCC1 (as salt: hydroiodid) [Example 31, N-[(2,6-dimethyl-phenyl)-phenylimino-methyl]-N′-phenyl-pyrrolidine-1-carboxamidine]
181 to 183 °C | CC1CCCCN1C(=Nc1ccccc1)NC(=Nc1ccccc1)c1ccccc1 (stereo not shown) (as salt: hydroiodid) [Example 32, N-[(2-methyl-piperidin-1-yl)-phenylimino-methyl]-N′-phenyl-benzamidine]
180 to 182 °C | CC1CCCCN1C(=Nc1ccccc1)NC(=Nc1ccccc1)c1ccccc1 (stereo not shown) (as salt: hydroiodid) [Example 33, N-[(2-methyl-piperidin-1-yl)-phenylimino-methyl]-N′-phenyl-benzamidine]
187 to 190 °C | c1ccc(N=C(NC(=Nc2ccccc2)N2CCCCO2)c2ccccc2)cc1 (as salt: nitrate) [Example 4, N-([1,2]Oxazinan-2-yl-phenylimino-methyl)-N′-phenyl-benzamidine]
189 to 192 °C | OC1CCCN(C(=Nc2ccccc2)NC(=Nc2ccccc2)c2ccccc2)C1 (stereo not shown) (as salt: nitrate) [Example 38, N-[(3-hydroxy-piperidin-1-yl)-phenylimino-methyl]-N′-phenyl-benzamidine]
194 to 196 °C | Fc1ccccc1C(=Nc1ccccc1)NC(=Nc1ccccc1)N1CCCC1 (as salt: nitrate) [Example 39, N-[(2-fluoro-phenyl)-phenylimino-methyl]-N′-phenyl-pyrrolidine-1-carboxamidine]
171 to 173 °C | Fc1ccc(N=C(NC(=Nc2ccccc2)N2CCCCCC2)c2c(F)cccc2F)cc1 (as salt: nitrate) [Example 56, N-(azepan-1-yl-phenylimino-methyl)-2,6-difluoro-N′-(4-fluoro-phenyl)-benzamidine]
